SMILES	melting point [°C]
CC(C)(C)OC(=O)c1cccc(Nc2nc(Oc3ccccc3)nc(Oc3cccc(Cl)c3)n2)c1 [(20), 3-{[4-(3-chlorophenoxy)-6-phenoxy-1,3,5-triazin-2-yl]amino}benzoic acid t-butyl ester]	187.5 to 190.5
COc1ccc(Oc2nc(Nc3cccc(C(=O)OC(C)(C)C)c3)nc(Oc3ccccc3)n2)cc1 [(23), 3-{[4-(4-methoxyphenoxy)-6-phenoxy-1,3,5-triazin-2-yl]amino}benzoic acid t-butyl ester]	68 to 70
COc1ccc(Oc2nc(Nc3cccc(C(=O)O)c3)nc(Oc3ccc(C=O)cc3OC)n2)cc1 [(37), 3-{[4-(4-formyl-2-methoxyphenoxy)-6-(4-methoxyphenoxy)-1,3,5-triazin-2-yl]amino}benzoic acid]	180 to 182
COC(=O)c1cccc(Nc2nc(Oc3ccc(OC)cc3)nc(Oc3ccc(Br)cc3C=O)n2)c1 [(16), 3-{[4-(4-bromo-2-formylphenoxy)-6-(4-methoxyphenoxy)-1,3,5-triazin-2-yl]amino}benzoic acid methyl ester]	180
CC(C)(C)OC(=O)c1cccc(Nc2nc(Oc3ccccc3)nc(Oc3ccccc3Cl)n2)c1 [(21), 3-{[4-(2-chlorophenoxy)-6-phenoxy-1,3,5-triazin-2-yl]amino}benzoic acid t-butyl ester]	191 to 192
COc1cc(C=O)ccc1Oc1nc(Nc2cccc(C(=O)OC(C)(C)C)c2)nc(Oc2ccccc2)n1 [(26), 3-{[4-(4-formyl-2-methoxyphenoxy)-6-phenoxy-1,3,5-triazin-2-yl]-amino}benzoic acid t-butyl ester]	76 to 79
COc1ccc(Oc2nc(Nc3cccc(C(=O)OC(C)(C)C)c3)nc(Oc3ccc(C#N)cc3)n2)cc1 [(28), 3-{[4-(4-cyanophenoxy)-6-(4-methoxyphenoxy)-1,3,5-triazin-2-yl]-amino}benzoic acid t-butyl ester]	161 to 164
CC(C)(C)OC(=O)c1cccc(Nc2nc(Oc3ccccc3)nc(Oc3ccc(C(C)(C)C)cc3)n2)c1 [(22), 3-{[4-(4-t-butylphenoxy)-6-phenoxy-1,3,5-triazin-2-yl]amino}benzoic acid t-butyl ester]	139 to 141
CC(C)(C)OC(=O)c1cccc(Nc2nc(Oc3ccccc3)nc(Oc3ccc(C#N)cc3)n2)c1 [(24), 3-{[4-(4-cyanophenoxy)-6-phenoxy-1,3,5-triazin-2-yl]amino}benzoic acid t-butyl ester]	176.5 to 178.5
CC(C)(C)OC(=O)c1cccc(Nc2nc(Oc3ccccc3)nc(Oc3ccccc3)n2)c1 [(18), 3-[(4.6-diphenoxy-1,3,5-triazin-2-yl)amino]benzoic acid t-butyl ester]	208 to 209
CC(C)(C)OC(=O)c1cccc(Nc2nc(Oc3ccccc3)nc(Oc3cccc([N+](=O)[O-])c3)n2)c1 [(25), 3-{[4-(3-nitrophenoxy)-6-phenoxy-1,3,5-triazin-2-yl]amino}benzoic acid t-butyl ester]	137 to 148
COC(=O)c1cccc(Nc2nc(Oc3ccc(C#N)cc3)nc(Oc3ccc(OC)cc3)n2)c1 [(17), 3-{[4-(4-cyanophenoxy)-6-(4-methoxyphenoxy)-1,3,5-triazin-2-yl]-amino}benzoic acid methyl ester]	132 to 134.5
COC(=O)c1cccc(Nc2nc(Oc3ccccc3)nc(Oc3ccccc3)n2)c1 [(6), 3-[(4.6-diphenoxy-1,3,5-triazin-2-yl)amino]benzoic acid methyl ester]	198 to 199.5
COC(=O)c1cccc(Nc2nc(Oc3ccc(OC)cc3)nc(Oc3ccc(C=O)cc3OC)n2)c1 [(15), 3-{[4-(4-formyl-2-methoxyphenoxy)-6-(4-methoxyphenoxy)-1,3,5-triazin-2-yl]amino}benzoic acid methyl ester]	79 to 82
CC(C)(C)OC(=O)c1cccc(Nc2nc(Oc3ccccc3)nc(Oc3ccc(Cl)cc3)n2)c1 [(19), 3-{[4-(4-chlorophenoxy)-6-phenoxy-1,3,5-triazin-2-yl]amino}benzoic acid t-butyl ester]	172.5 to 174
